As a reminder, the inhibition is the percentage by which the read-out fell short of the control.

This experiment in a line: Peptide was evaluated for inhibition in competitive ELISA at a concentration of 1 mM using casein phosphopeptide alpha s1-casein (59-79) as the adsorbed antigen.
`CC[C@H](C)[C@H](N)C(=O)N[C@H](C(=O)N1CCC[C@@H]1C(=O)N[C@@H](CC(N)=O)C(=O)N[C@@H](CO)C(=O)N[C@H](C(=O)N[C@@H](CCC(=O)O)C(=O)N[C@@H](CCC(=O)O)C(=O)NC)C(C)C)C(C)C` returned an inhibition of 12%. As for `CC[C@H](C)[C@H](NC(=O)[C@H](COP(=O)(Oc1ccccc1)Oc1ccccc1)NC(=O)[C@H](CCC(=O)O)NC(C)=O)C(=O)N[C@@H](COP(=O)(Oc1ccccc1)Oc1ccccc1)C(=O)N[C@@H](COP(=O)(Oc1ccccc1)Oc1ccccc1)C(=O)N[C@@H](COP(=O)(Oc1ccccc1)Oc1ccccc1)C(=O)N[C@@H](CCC(=O)O)C(=O)NC(CCC(=O)O)C(=O)NC` (stereo partly specified), the figure is 20%.

Take `CC[C@H](C)[C@H](NC(=O)[C@H](CCC(=O)O)NC(=O)[C@@H](N)CCC(=O)O)C(=O)N[C@H](C(=O)N1CCC[C@@H]1C(=O)N[C@@H](CC(N)=O)C(=O)O)C(C)C`: the inhibition is 10.8%. Turning to `CC[C@H](C)[C@H](NC(=O)[C@H](COP(=O)(Oc1ccccc1)Oc1ccccc1)NC(=O)[C@H](CCC(=O)O)NC(=O)[C@H](C)NC(=O)[C@@H](N)CCC(=O)O)C(=O)NC`, the inhibition was 10.9%.

Compound H-QMEAE-OH registered an inhibition of 10%. As for `CC[C@H](C)[C@H](N)C(=O)N[C@H](C(=O)N1CCC[C@@H]1C(=O)N[C@@H](CC(N)=O)C(=O)N[C@@H](COP(=O)(Oc1ccccc1)Oc1ccccc1)C(=O)N[C@H](C(=O)N[C@@H](CCC(=O)O)C(=O)N[C@@H](CCC(=O)O)C(=O)NC)C(C)C)C(C)C`, the figure is 60.3%.

The record behind these values is ChEMBL document CHEMBL1126460, “The use of synthetic phosphopeptides for epitope mapping of the s1-casein phosphopeptide segment 5979” (Bioorg Med Chem Lett, 1992).
